From patent publication EP0263209A2, “Anthelmintic quinolinyl acylhydrazones” (THE UPJOHN COMPANY, priority 1986, dated 1988)
Like-named read-outs stand apart in the source and are kept apart here.

Columns and labels:
Format in all cases: in vivo
H. contortus = assay: Sheep experimentally infected with Haemonchus contortus, percentage clearance (Procedure No. 1); conditions: single sheep per route
Description: In individual experiments all sheep are treated identically, however non-critical variations occur between experiments. All of the sheep used in this procedure are treated twice with levamisole hydrochloride orally at 8 mg/kg or once each with ivermectin parenterally at 200 µg/kg and levamisole hydrochloride orally at 8 mg/kg. The second treatment in each case is administered 4-7 days after the first treatment. Two weeks after the second treatment all sheep are inoculated per os with ∼3,500 to ∼7,500 infective larvae of H. contortus. Rectal fecal samples are taken from each sheep 26-41 days post-inoculation (P.I.), and these samples are examined for eggs of H. contortus using the McMaster counting chamber technique. […] One-three days later on days 27-42 PI each sheep remaining in the study (excluding the nontreated controls) is treated with a test compound (orally or parenterally at 100 mg/kg unless indicated otherwise) or a standard (levamisole hydrochloride orally at 8 mg/kg) or is used as an untreated control. All sheep received food and water ad lib. throughout the experiment. Prior to administration, all solid compounds are finely ground using a mortar and pestle. Oral compounds are suspended in 20-30 ml of sterile vehicle #98 (each ml contains: carboxymethylcellulose = 10 mg, polysorbate80 -4 mg, propylparaben - 0.42 mg) using a sonicator and administered along with a tap water wash via a stomach tube. The parenteral compounds are similarly suspended in 20-30 ml of the sterile vehicle and given by intraperitoneal injecting using a 13 gauge, 2 inch needle and a 50 ml syringe. All test compounds are given to a single sheep/route of administration. Two or more sheep are treated with levamisole hydrochloride and five are used as nontreated controls. All animals are monitored for signs of toxicity following treatment. The sheep are sacrificed 7-12 days after treatment (days 35-49 PI), and the abomasum is ligated and removed from each sheep. Each abomasum is longitudinally sectioned and rinsed into an 80 mesh sieve. Sieve contents are collected in individual containers and fixed in formol-alcohol. Later each sample is transferred to a 1000 or 2000 ml beaker and the volume brought to 400-1000 ml with tap water. The total number of worms in a 40-100 ml aliquot (10%) is determined. When no worms are found in the 10% aliquot, the entire sample is examined. Total worm number/sheep and percentage clearance for each treatment are calculated. Percentage clearance for a particular test compound in a given trial is determined according to the following formula: Percentage Clearance (Test Compound) = [(Mean number of worms recovered from nontreated control sheep - Number of worms recovered from treated sheep)/Mean number of worms recovered from nontreated control sheep] x 100. Sheep which die within 24 hr following treatment are not examined for worms, while any that die between 24 hr post-treatment and necropsy are examined in an identical manner as that described above. The results of various trials are combined and reported in Table I as percentage clearance.

[1] = system: Trichostrongylus colubriformis; assay: Sheep naturally infected with helminths, mean percentage clearance of adult worms (Procedure No. 2); conditions: Oral, 100 mg/kg, groups of five
Description: (§1) Parasitized sheep are randomly assigned to groups of five animals based on parasitic burden, sex, and farm origin. Sheep are double ear-tagged, weighed, housed in a barn in community pens, fed hay supplemented with 1/2 lb corn/head/day. Water is given ad lib. Animals are allowed to acclimate for one-two weeks prior to treatment.
(§2) Each group of sheep receives a test compound either orally or parenterally at a dosage rate of 100 mg/kg. A group of sheep is treated with 8 mg/kg of levamisole hydrochloride and another group serves as an untreated control group. Orally administered compounds are suspended in 20-30 ml of sterile vehicle #98 (each ml contains: carboxymethylcellulose - 10 mg, polysorbate80 -4 mg, propylparaben - 0.42 mg) using a sonicator and administered along with a tap water wash via a stomach tube. For parenteral administration, compounds are similarly suspended in 20-30 ml of the sterile vehicle and given by intraperitoneal injection using a 20 gauge, 1 inch needle and a 50 ml syringe. Following treatment, all animals are observed for signs of toxicity.
(§3) The number and classification of helminth eggs per gram of feces (e.p.g.) are determined for each sheep during the acclimation period and in some cases at necropsy. Egg counts are made using the McMaster counting chamber technique and rectal fecal samples. Animals dying during the 24 hours immediately following dosing are not subjected to necropsy. Sheep that die 1-6 days posttreatment are posted and complete worm counts performed. All remaining animals are sacrificed on days 7-8 posttreatment. Each sheep is euthanised and bled out prior to opening the abdominal cavity. Ligatures are placed at the reticuloomasal junction, the pyloric valve, and the ileo-cecal junction. The abomasum and small intestine are freed of fat and mesenteric attachments, longitudinally opened, and their contents placed in individual containers. The mucosal surface of each is washed with tap water, rubbed clean, and rinsed several times. Washings and ingesta for each organ are made up to 1 liter and a 10% aliquot in formalin is stored for later examination. The cecum, large intestine, and colon are freed of mesenteric attachments, each is longitudinally opened, and their contents washed, collected, and made up to 1 liter in 10% formalin. The entire sample is stored. All carcasses are incinerated.
(§4) Ten percent of the total contents collected from the abomasum and small intestine and the entire contents of the large intestine, cecum, and colon are examined under stereoscopic magnification (40X). All worms are identified to genus and in some instances species. Separate adult and larval counts are determined.
(§5) The mean percentage clearance against specific helminths in the test sheep is calculated by subtracting the mean number of helminths observed in the treated sheep at necropsy from the mean number observed in the nontreated controls at necropsy, dividing the remainder by the latter mean number and multiplying by 100. The mean percentage clearances against the various helminths identified in the test sheep are calculated.

Trichuris = assay: as above; conditions: Oral, 100 mg/kg, groups of five
Description: as §1, §2, §3, §4, §5

Ostertagia = assay: as above; conditions: Oral, 100 mg/kg, groups of five
Description: as §1, §2, §3, §4, §5

Oesophagostomum = assay: as above; conditions: Oral, 100 mg/kg, groups of five
Description: as §1, §2, §3, §4, §5

Trichostrongylus axei = assay: as above; conditions: Oral, 100 mg/kg, groups of five
Description: as §1, §2, §3, §4, §5

Haemonchus = assay: as above; conditions: Oral, 100 mg/kg, groups of five
Description: as §1, §2, §3, §4, §5

Nematodirus = assay: as above; conditions: Oral, 100 mg/kg, groups of five
Description: as §1, §2, §3, §4, §5

[2] = ip, intraperitoneal administration, read-out: H. contortus %Clearance I.P.
[3] = oral administration, read-out: H. contortus %Clearance P.O.

O=C(NN=Cc1ccc2ccccc2n1)c1cccc(O)c1 [Compound 20]
inhibition in vivo at 100 mg/kg (H. contortus; [2]): 20.3% | inhibition in vivo at 100 mg/kg (H. contortus; [3]): 0%

COC(=O)NN=Cc1ccnc2ccccc12 [Compound 25, methyl (4-quinolinylmethylene)carbazate]
inhibition in vivo at 100 mg/kg (H. contortus; [3]): 3.4%

O=C(NN=Cc1ccnc2ccccc12)C1CCC1 [Compound 29, cyclobutanecarboxylic acid (4-quinolinylmethylene)hydrazide]
inhibition in vivo at 100 mg/kg (H. contortus; [2]): 88.4% | inhibition in vivo at 100 mg/kg (H. contortus; [3]): 99.8%

CCC(=O)NN=Cc1cnc2ccccc2c1 [Compound 39]
inhibition in vivo at 100 mg/kg (H. contortus; [3]): 96.4%

O=C(NN=Cc1ccnc2ccccc12)c1ccccc1 [Compound 11]
inhibition in vivo at 100 mg/kg (H. contortus; [3]): 96.8%

COc1ccc(C(=O)NN=Cc2ccc3ccccc3n2)cc1 [Compound 22, 4-methoxybenzoic acid (2-quinolinylmethylene)hydrazide]
inhibition in vivo at 100 mg/kg (H. contortus; [2]): 14.3% | inhibition in vivo at 100 mg/kg (H. contortus; [3]): 0%

O=C(NN=Cc1cnc2ccccc2c1)C1CCCCC1 [Compound 41]
inhibition in vivo at 100 mg/kg (H. contortus; [3]): 98.2%

O=C(NN=Cc1ccc2ccccc2n1)c1cccnc1 [Compound 9]
inhibition in vivo at 100 mg/kg (H. contortus; [3]): 76.8%

O=C(NN=Cc1ccc2ccccc2n1)c1ccccc1 [Compound 8, benozic acid (2-quinolinylmethylene) hydrazide]
inhibition in vivo at 100 mg/kg (H. contortus; [3]): 33%

Cc1cccc(C(=O)NN=Cc2ccc3ccccc3n2)c1 [Compound 4, 3-methylbenzoic acid (2-quinolinylmethyl-ene)hydrazide]
inhibition in vivo at 100 mg/kg (H. contortus; [2]): 29.8% | inhibition in vivo at 100 mg/kg (H. contortus; [3]): 53.3%

Cc1ccccc1C(=O)NN=Cc1ccc2ccccc2n1 [Compound 15]
inhibition in vivo at 100 mg/kg (H. contortus; [2]): 0% | inhibition in vivo at 100 mg/kg (H. contortus; [3]): 32%

CCOc1ccc(C(=O)NN=Cc2ccc3ccccc3n2)cc1 [Compound 14]
inhibition in vivo at 100 mg/kg (H. contortus; [2]): 0% | inhibition in vivo at 100 mg/kg (H. contortus; [3]): 36.8%

O=C(NN=Cc1ccnc2ccccc12)c1cccs1 [Compound 16]
inhibition in vivo at 100 mg/kg (H. contortus; [2]): 80.1% | inhibition in vivo at 100 mg/kg (H. contortus; [3]): 25.2%

O=C(NN=Cc1ccc2ccccc2n1)c1cccc([N+](=O)[O-])c1 [Compound 23, 3-nitrobenzoic acid (2-quinolinylmethylene)hydrazide]
inhibition in vivo at 100 mg/kg (H. contortus; [2]): 0% | inhibition in vivo at 100 mg/kg (H. contortus; [3]): 39.5%

CC(=O)NN=Cc1cnc2ccccc2c1 [Compound 43]
inhibition in vivo at 100 mg/kg (H. contortus; [3]): 85.4%

CCOC(=O)NN=Cc1ccnc2ccccc12 [Compound 6, ethyl (4-quinolinylmethylene)carbazate]
inhibition in vivo at 100 mg/kg (H. contortus; [2]): 61.2% | inhibition in vivo at 100 mg/kg (H. contortus; [3]): 82.9% | Percentage Clearance of Adult Worms T.c. [1]: 61.4% | Percentage Clearance of Adult Worms Trich. (Trichuris): 11.1% | Percentage Clearance of Adult Worms Ost. (Ostertagia): 79.4% | Percentage Clearance of Adult Worms Oes. (Oesophagostomum): 33.3% | Percentage Clearance of Adult Worms T.a. (Trichostrongylus axei): 0% | Percentage Clearance of Adult Worms H. (Haemonchus): 94.1% | Percentage Clearance of Adult Worms N. (Nematodirus): 45.2%

NC(=O)NCC(=O)NN=Cc1ccc2ccccc2n1 [Compound 12]
inhibition in vivo at 100 mg/kg (H. contortus; [3]): 32.9%

O=C(NN=Cc1ccnc2ccccc12)c1ccc(C(F)(F)F)cc1 [Compound 26, 4-trifluoromethylbenzoic acid (4-quinolinylmethylene)hydrazide]
inhibition in vivo at 100 mg/kg (H. contortus; [2]): 29% | inhibition in vivo at 100 mg/kg (H. contortus; [3]): 40.2%
